Data taken from patent US20010047016A1, “Method for treating depression” (priority 2000, published 2001).

What was measured:
C57BL/6J mice = assay: tail suspension test in C57BL/6J mice; format: in vivo
Procedure: The tail suspension test is a variant of the “behavioral despair” forced swimming test in which immobility is induced by suspending an animal by the tail (Steru et al., 1985). […] C57BL/6 mice ([…] 21-25g) were housed, ten per cage, in light controlled chambers (12 hr. light/12 hr. dark cycle-lights on at 08.00 hr., off at 20.00 hr.) with free access to food and water. Each animal was tested in a chamber made out of white non-transparent plastics. The C57BL/6J mice are suitable animals for such a study since no enzymes of melatonin biosynthesis have been found in the pineal glands of this strain of mice (Ebihara et al., 1986). Therefore, the observed effects could not be attributed to melatonin. The chamber was 17 cm W×25 cm H×15 cm D with a hook (4 cm) attached to the center of the ceiling. There was no front wall to allow for the observation of the mouse behavior. The mouse was hung on a hook by an adhesive tape placed 15 mm from the extremity of its tail. The animal was positioned with its stomach towards the investigator to assure the observation of the total immobility. The distance between the floor of the chamber and the nose of the animal was 10 cm. Immobility was scored as a sum of the time periods during which the animal hung passively and motionless for at least 2 sec. The total period of observation was 6 min. Experiments were conducted between 10.00 hr. and 14.00 hr. in a quiet room. The source of the light (50 W fluorescent bulb) was positioned 2 m above the experimental chamber. Baseline, control experiments were conducted several days before the actual experiments. Only those animals whose cumulative duration of immobility during the 6 min. observation was no less than 100 sec. were selected for further experiments. Three animals were tested simultaneously. Each experimental group was composed of at least nine animals. […] Nifedipine was injected in a dose (5 mg/kg, i.p.) which, by itself, has no effect on the duration of immobility ([…] and Oxenkrug, 1998). […] Results were expressed as mean±S.D. (sec.) and statistically treated by ANOVA and Student t-test.

[1] = system: other melatonin receptors; details: cited from earlier work
[2] = target: T1, MT-3 melatonin sites of hamster brain (Mesocricetus auratus, UniProt A0ABM2YAB8); details: cited from earlier work
T1 construct: MT-3 melatonin sites of hamster brain; host or cells: hamster brain
T1 sequence (A0ABM2YAB8 1-231): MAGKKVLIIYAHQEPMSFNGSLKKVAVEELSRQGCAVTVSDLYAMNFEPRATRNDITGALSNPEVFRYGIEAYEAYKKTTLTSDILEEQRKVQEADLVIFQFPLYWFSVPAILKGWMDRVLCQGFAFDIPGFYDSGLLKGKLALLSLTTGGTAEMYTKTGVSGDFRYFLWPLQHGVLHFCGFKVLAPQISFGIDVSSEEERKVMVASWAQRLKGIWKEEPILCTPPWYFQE

mouse = mouse tail suspension test; cited from earlier work

Q: What does the source list for `COc1cc2nc(N3CCN(C(=O)c4ccco4)CC3)nc(N)c2cc1OC` [Prazocin, reference compound]?
A: duration of immobility (C57BL/6J mice; prazocin 0.5 mg/kg alone): did not affect the duration of immobility; effect on decrease of immobility induced by 5-MCA-NAT (C57BL/6J mice; prazocin 0.5 mg/kg injected 15 min before 5-MCA-NAT 50 mg/kg): prevented decrease of immobility

Q: For `COC(=O)Nc1ccc2[nH]cc(CCNC(C)=O)c2c1` [5-MCA-NAT, 5-methoxy-carbonylamino-N-acetyltryptamine], which “affinity or efficacy for other melatonin receptors” value [1] is on record?
A: low affinity or efficacy

Q: And the duration of immobility (C57BL/6J mice; 5-MCA-NAT 10 mg/kg i.p., 30 min before testing, 6 min observation)?
A: did not affect the duration of immobility

Q: And the duration of immobility (C57BL/6J mice; 5-MCA-NAT 25 mg/kg i.p., 30 min before testing, 6 min observation)?
A: decreased the duration of immobility

Q: What about the duration of immobility (C57BL/6J mice; 5-MCA-NAT 50 mg/kg i.p., 30 min before testing, 6 min observation) of the same molecule?
A: decreased the duration of immobility

Q: What about the duration of immobility (C57BL/6J mice; combination: 5-MCA-NAT 10 mg/kg i.p. with nifedipine 5 mg/kg i.p. injected 15 min after) of the same molecule?
A: decreased the duration of immobility

Q: What about the “affinity for MT-3 melatonin sites” value [2] of the same molecule?
A: high affinity

Q: For `COc1ccc2[nH]cc(CCNC(C)=O)c2c1` [Melatonin, N-acetyl-5-methoxytryptamine], which antidepressant-like activity (mouse) is on record?
A: antidepressant-like activity
